The source made the active and inactive calls.
What was measured:
Assay type in all cases: functional, cell-based
Daudi [1] = assay: Tested for antiproliferative activity against human tumor DAUDI EBV-immortalized B-lymphoid cells up to 72 hrs at concentration of 10 ug/ml; Inactive
Daudi [2] = assay: Tested for antiproliferative activity against human tumor DAUDI EBV-immortalized B-lymphoid cells up to 72 hrs at concentration of 2.5 ug/ml; Inactive
Daudi [3] = assay: Tested for antiproliferative activity against human tumor DAUDI EBV-immortalized B-lymphoid cells up to 72 hrs at concentration of 5 ug/ml; Inactive
[4] = Tested for cell count against human tumor Molt-4 cell line for antiproliferative activity; Inactive
Daudi [5] = assay: Tested for antiproliferative activity against human tumor DAUDI EBV-immortalized B-lymphoid cells up to 72 hrs at concentration of 1.25 ug/ml; Inactive
[6] = Tested for cell count against human tumor DAUDI EBV-immortalized B-lymphoid cells for antiproliferative activity; Inactive
K562 = assay: Tested for cell count against human tumor K562 erythromyeloid stem cells for antiproliferative activity; Inactive
[7] = Tested for cell count against human tumor MT-2 T-lymphoid cells for antiproliferative activity; Inactive
MT2 [8] = assay: Tested for antiproliferative activity against human tumor MT-2 T-lymphoid cells up to 72 hrs at concentration of 1.25 ug/ml; Inactive
MT2 [9] = assay: Tested for antiproliferative activity against human tumor MT-2 T-lymphoid cells up to 72 hrs at concentration of 10 ug/ml; Inactive
MT2 [10] = assay: Tested for antiproliferative activity against human tumor MT-2 T-lymphoid cells up to 72 hrs at concentration of 2.5 ug/ml; Inactive
MT2 [11] = assay: Tested for antiproliferative activity against human tumor MT-2 T-lymphoid cells up to 72 hrs at concentration of 5 ug/ml; Inactive
[12] = Tested for antiproliferative activity against human tumor U937 cell line up to 72 hrs at concentration of 1.25 ug/ml; Inactive
[13] = Tested for antiproliferative activity against human tumor U937 cell line up to 72 hrs at concentration of 10 ug/ml; Inactive
[14] = Tested for antiproliferative activity against human tumor U937 cell line up to 72 hrs at concentration of 2.5 ug/ml; Inactive
[15] = Tested for antiproliferative activity against human tumor U937 cell line up to 72 hrs at concentration of 5 ug/ml; Inactive
[16] = Tested for cell count against human tumor HL60 myeloid cells for antiproliferative activity; Inactive
MOLT-4 [17] = assay: Tested for antiproliferative activity against human tumor Molt-4 cell line up to 72 hrs at concentration of 5 ug/ml; Inactive
MOLT-4 [18] = assay: Tested for antiproliferative activity against human tumor Molt-4 cell line up to 72 hrs at concentration of 1.25 ug/ml; Inactive
MOLT-4 [19] = assay: Tested for antiproliferative activity against human tumor Molt-4 cell line up to 72 hrs at concentration of 10 ug/ml; Inactive
MOLT-4 [20] = assay: Tested for antiproliferative activity against human tumor Molt-4 cell line up to 72 hrs at concentration of 2.5 ug/ml; Inactive

Measured: Activity

CCCC1C(O)[C@@H](CO)O[C@H]1n1ccc(=O)[nH]c1=O (single isomer, unassigned)
inactive: all assays above

CC1[C@@H](O)[C@@H](CO)O[C@H]1n1ccc(=O)[nH]c1=O (single isomer, unassigned; 5b)
inactive: all assays above

C[C@@H]1C[C@@H](CO)O[C@H]1n1ccc(=O)[nH]c1=O
inactive: all assays above

C=CCC1C(O)[C@@H](CO)O[C@H]1n1ccc(N)nc1=O (single isomer, unassigned)
inactive: all assays above

C=CCC1C(O)[C@@H](CO)O[C@H]1n1ccc(=O)[nH]c1=O (single isomer, unassigned)
inactive: all assays above

CCCC1C(O)[C@@H](CO)O[C@H]1n1ccc(N)nc1=O (single isomer, unassigned)
inactive: all assays above

CCC[C@H]1C[C@@H](CO)OC1n1ccc(=O)[nH]c1=O (stereo partly drawn)
inactive: all assays above

C[C@H]1C[C@@H](CO)O[C@H]1n1ccc(=O)[nH]c1=O
inactive: all assays above

From ChEMBL document CHEMBL1151562, “Stereoselective synthesis of novel analogues of 2-deoxy- and 2,3-dideoxynucleosides with potential antiviral activity” (Bioorg Med Chem Lett, 1994)
